Data taken from patent US20260356830A1, “COMPOUNDS FOR MODULATING RET PROTEIN” (Bristol-Myers Squibb Company, priority 2022, published 2026).

Molecular target: T1, CCDC6-RET (Homo sapiens, UniProt P07949+Q16204+Q96SW2)
T1 construct: CCDC6 (natural N-terminal fusion partner, UniProt Q16204); endogenous in cells; host or cells: TPC-1 (parental, papillary thyroid carcinoma)
Experiment: Cellular RET degradation, AlphaLISA, TPC-1 cell line
Assay type: cell-based
Conditions: for Dmax: TPC1, human, 24 h, read-out: Cell Density TPC-1/CCDC6-RET Ymax %; for DC50: read-out: Cell Density TPC-1/CCDC6-RET DC50, half-maximal degradation concentration, TPC-1 (CCDC6-RET), 24 hrs
Procedure: Cellular RET degradation compound potency was determined using the bead-based luminescent amplification assay-AlphaLISA Surefire Ultra Detection Kit (Perkin-Elmer). The CCDC6-RET fusion expressing papillary thyroid carcinoma (TPC-1) cell line was selected for screening of potential degraders: Parental (TPC-1/CCDC6-RET). Cells were plated in 384 well culture plates (Greiner Bio-One) at 10,000 cells/well in 50 ul/well DMEM (Fisher Scientific) with 2% FBS serum (Gibco). […] Low normalization wells were media only and high normalization wells were cells treated with DMSO only. Treated cell plates were placed in an incubator at 37 °C and 5% CO2 for 24 hrs. At 24 hrs, cell media was removed by a FELIX automated liquid hander (Analytik Jena) and 25 ul of cell lysis buffer (provided in AlphaLisa kit) was added to each well. […] cell lysate were transferred into a 384-well microplate (Perkin Elmer) before addition of 2.5 ul AlphaLISA Acceptor Bead mix. The plates were sealed and kept at room temperature for 1 hr before addition of donor bead mixture. Donor bead addition was performed in the dark and incubated for >1 hr before AlphaLISA luminescence was measured on an Envision plate reader with an Alphascreen aperture at RT (excitation 680 nm, emission 615 nm). RET protein abundance (and therefore degradation) directly corresponds to luminescence intensity.
Intensities were normalized relative to the average values from 16 wells containing media alone (blank-low) and 16 wells containing cells +DMSO (high). % Degradation for each well was determined using the standard equation, where
DC50 (IC50) values for each compound tested are calculated by analyzing plots of % degradation versus compound concentration, and fitting to the standard 4-parameter logistic curve where,
DC50 values are calculated according to the relationship,
Compound replicates were performed in independent assays. Maximum degradation (YMax) was defined as the maximal % degradation value from the 4-parameter logistic equation, as previously described.

T1 sequence (Q16204+P07949 fused): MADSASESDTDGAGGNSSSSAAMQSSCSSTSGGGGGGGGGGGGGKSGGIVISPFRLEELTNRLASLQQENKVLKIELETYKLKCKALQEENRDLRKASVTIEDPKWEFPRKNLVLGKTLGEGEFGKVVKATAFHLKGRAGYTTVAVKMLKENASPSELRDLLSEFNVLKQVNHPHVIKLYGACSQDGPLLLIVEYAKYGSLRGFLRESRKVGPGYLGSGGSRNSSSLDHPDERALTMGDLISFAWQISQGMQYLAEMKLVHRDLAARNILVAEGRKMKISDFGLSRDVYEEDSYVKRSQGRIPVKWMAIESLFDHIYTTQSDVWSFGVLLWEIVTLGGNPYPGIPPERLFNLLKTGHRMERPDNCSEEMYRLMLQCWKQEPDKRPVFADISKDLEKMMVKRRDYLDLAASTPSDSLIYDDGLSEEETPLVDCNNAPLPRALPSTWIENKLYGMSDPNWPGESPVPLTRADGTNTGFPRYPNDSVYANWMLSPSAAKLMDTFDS
T1 sequence (Q96SW2 whole entry, the tested form may be a part): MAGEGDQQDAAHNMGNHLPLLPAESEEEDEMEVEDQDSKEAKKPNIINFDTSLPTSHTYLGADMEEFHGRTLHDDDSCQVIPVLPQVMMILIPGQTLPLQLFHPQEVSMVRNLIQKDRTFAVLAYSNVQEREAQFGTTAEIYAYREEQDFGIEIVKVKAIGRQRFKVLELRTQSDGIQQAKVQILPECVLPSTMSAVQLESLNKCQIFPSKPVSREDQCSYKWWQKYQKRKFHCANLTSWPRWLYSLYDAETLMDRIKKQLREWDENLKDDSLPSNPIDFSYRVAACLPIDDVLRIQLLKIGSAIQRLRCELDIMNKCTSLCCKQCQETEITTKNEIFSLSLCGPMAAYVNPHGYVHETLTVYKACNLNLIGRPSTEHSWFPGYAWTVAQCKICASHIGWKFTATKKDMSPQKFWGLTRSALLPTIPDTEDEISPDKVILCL
T1 sequence (Q16531 whole entry partner, the tested form may be a part): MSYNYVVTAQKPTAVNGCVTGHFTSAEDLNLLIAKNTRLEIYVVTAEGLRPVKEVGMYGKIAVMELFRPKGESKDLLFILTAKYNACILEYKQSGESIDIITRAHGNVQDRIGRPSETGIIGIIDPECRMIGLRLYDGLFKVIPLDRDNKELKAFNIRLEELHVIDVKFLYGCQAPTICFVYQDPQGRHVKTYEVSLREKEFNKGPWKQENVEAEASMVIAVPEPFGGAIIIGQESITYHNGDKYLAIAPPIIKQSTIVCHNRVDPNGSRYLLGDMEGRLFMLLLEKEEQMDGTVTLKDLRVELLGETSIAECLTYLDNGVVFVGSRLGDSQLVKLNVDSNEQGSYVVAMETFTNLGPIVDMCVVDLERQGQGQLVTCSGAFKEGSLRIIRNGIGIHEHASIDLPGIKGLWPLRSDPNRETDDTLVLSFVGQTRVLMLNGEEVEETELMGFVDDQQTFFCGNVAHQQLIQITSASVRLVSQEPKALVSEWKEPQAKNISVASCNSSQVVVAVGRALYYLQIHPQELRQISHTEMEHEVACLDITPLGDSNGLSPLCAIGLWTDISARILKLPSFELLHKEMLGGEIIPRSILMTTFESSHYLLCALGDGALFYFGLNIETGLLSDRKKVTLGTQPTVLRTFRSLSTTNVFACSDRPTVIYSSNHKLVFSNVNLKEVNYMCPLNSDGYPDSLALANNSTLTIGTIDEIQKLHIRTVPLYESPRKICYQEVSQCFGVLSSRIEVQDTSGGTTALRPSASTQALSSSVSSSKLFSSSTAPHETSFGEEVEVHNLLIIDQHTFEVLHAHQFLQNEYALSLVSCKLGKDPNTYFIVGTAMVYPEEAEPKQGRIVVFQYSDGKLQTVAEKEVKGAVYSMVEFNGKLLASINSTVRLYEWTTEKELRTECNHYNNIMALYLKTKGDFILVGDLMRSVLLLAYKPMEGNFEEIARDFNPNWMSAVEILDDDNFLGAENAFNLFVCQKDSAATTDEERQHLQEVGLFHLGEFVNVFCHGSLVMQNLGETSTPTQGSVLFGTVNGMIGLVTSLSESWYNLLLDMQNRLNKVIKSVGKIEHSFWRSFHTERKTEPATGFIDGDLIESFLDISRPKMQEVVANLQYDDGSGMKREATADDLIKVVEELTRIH

SMILES	Dmax	DC50
CCOc1cc(-c2ccc(N3CCC(CN4CCN(C(=O)CCCCCCN5CCN(c6ccc7c(c6)CN(C6CCC(=O)NC6=O)C7=O)CC5)CC4)(NC(=O)c4ncccc4F)CC3)nc2)c2c(C#N)cnn2c1 (stereo not drawn) [Example 2, N-(1-(5-(3-cyano-6-ethoxypyrazolo[1,5-a]pyridin-4-yl)pyridin-2-yl)-4-((4-(7-(4-(2-(2,6-dioxopiperidin-3-yl)-1-oxoisoindolin-5-yl)piperazin-1-yl)heptanoyl)piperazin-1-yl)methyl)piperidin-4-yl)-3-fluoropicolinamide]	60 to 90%	2 to 10 nM
CCOc1cc(-c2ccc(N3CCC(CN4CCN(C(=O)CCCCCCN5CCN(c6ccc7c(c6)CN(C6CCC(=O)NC6=O)C7=O)CC5)CC4)(NC(=O)CC(C)C)CC3)nc2)c2c(C#N)cnn2c1 (stereo not drawn) [Example 3, N-(1-(5-(3-cyano-6-ethoxypyrazolo[1,5-a]pyridin-4-yl)pyridin-2-yl)-4-((4-(7-(4-(2-(2,6-dioxopiperidin-3-yl)-1-oxoisoindolin-5-yl)piperazin-1-yl)heptanoyl)piperazin-1-yl)methyl)piperidin-4-yl)-3-methylbutanamide]	> 90%	2 to 10 nM
CCOc1cc(-c2ccc(N3CCC(CN4CCN(C(=O)CCCCN5CCN(c6ccc7c(c6)CN(C6CCC(=O)NC6=O)C7=O)CC5)CC4)(NC(=O)c4cc(F)ccc4F)CC3)nc2)c2c(C#N)cnn2c1 (stereo not drawn) [Example 5, N-(1-(5-(3-cyano-6-ethoxypyrazolo[1,5-a]pyridin-4-yl)pyridin-2-yl)-4-((4-(5-(4-(2-(2,6-dioxopiperidin-3-yl)-1-oxoisoindolin-5-yl)piperazin-1-yl)pentanoyl)piperazin-1-yl)methyl)piperidin-4-yl)-2,5-difluorobenzamide]	> 90%	2 to 10 nM
CCOc1cc(-c2ccc(N3CCC(CN4CCN(C(=O)CN5CCN(c6ccc7c(c6)CN(C6CCC(=O)NC6=O)C7=O)CC5)CC4)(NC(=O)c4cc(F)ccc4F)CC3)nc2)c2c(C#N)cnn2c1 (stereo not drawn) [Example 6, N-(1-(5-(3-cyano-6-ethoxypyrazolo[1,5-a]pyridin-4-yl)pyridin-2-yl)-4-((4-(2-(4-(2-(2,6-dioxopiperidin-3-yl)-1-oxoisoindolin-5-yl)piperazin-1-yl)acetyl)piperazin-1-yl)methyl)piperidin-4-yl)-2,5-difluorobenzamide]	> 90%	2 to 10 nM
CCOc1cc(-c2ccc(N3CCC(CN4CCN(C(=O)CCN5CCC(c6ccc7c(c6)C(=O)N(C6CCC(=O)NC6=O)C7)CC5)CC4)(NC(=O)C4CC4)CC3)nc2)c2c(C#N)cnn2c1 (stereo not drawn) [Example 9, N-(1-(5-(3-cyano-6-ethoxypyrazolo[1,5-a]pyridin-4-yl)pyridin-2-yl)-4-((4-(3-(4-(2-(2,6-dioxopiperidin-3-yl)-3-oxoisoindolin-5-yl)piperidin-1-yl)propanoyl)piperazin-1-yl)methyl)piperidin-4-yl)cyclopropanecarboxamide]	> 90%	2 to 10 nM
CCOc1cc(-c2ccc(N3CCC(CN4CCN(C(=O)CCN5CCN(c6ccc7c(c6)C(=O)N(C6CCC(=O)NC6=O)C7)CC5)CC4)(NC(=O)c4cc(F)ccc4F)CC3)nc2)c2c(C#N)cnn2c1 (stereo not drawn) [Example 12, N-(1-(5-(3-cyano-6-ethoxypyrazolo[1,5-a]pyridin-4-yl)pyridin-2-yl)-4-((4-(3-(4-(2-(2,6-dioxopiperidin-3-yl)-3-oxoisoindolin-5-yl)piperazin-1-yl)propanoyl)piperazin-1-yl)methyl)piperidin-4-yl)-2,5-difluorobenzamide]	> 90%	< 2 nM
CCOc1cc(-c2ccc(N3CCC(CN4CCN(C(=O)CCCCN5CCN(c6ccc7c(c6)C(=O)N(C6CCC(=O)NC6=O)C7)CC5)CC4)(NC(=O)c4cc(F)ccc4F)CC3)nc2)c2c(C#N)cnn2c1 (stereo not drawn) [Example 13, N-(1-(5-(3-cyano-6-ethoxypyrazolo[1,5-a]pyridin-4-yl)pyridin-2-yl)-4-((4-(5-(4-(2-(2,6-dioxopiperidin-3-yl)-3-oxoisoindolin-5-yl)piperazin-1-yl)pentanoyl)piperazin-1-yl)methyl)piperidin-4-yl)-2,5-difluorobenzamide]	> 90%	< 2 nM
CCOc1cc(-c2ccc(N3CCC(CN4CCN(C(=O)CCCN5CCN(c6ccc7c(c6)CN(C6CCC(=O)NC6=O)C7=O)CC5)CC4)(NC(=O)c4cc(F)ccc4F)CC3)nc2)c2c(C#N)cnn2c1 (stereo not drawn) [Example 14, N-(1-(5-(3-cyano-6-ethoxypyrazolo[1,5-a]pyridin-4-yl)pyridin-2-yl)-4-((4-(4-(4-(2-(2,6-dioxopiperidin-3-yl)-1-oxoisoindolin-5-yl)piperazin-1-yl)butanoyl)piperazin-1-yl)methyl)piperidin-4-yl)-2,5-difluorobenzamide]	60 to 90%	2 to 10 nM
CCOc1cc(-c2ccc(N3CCC(CN4CCN(C(=O)CCCCCCN5CCN(c6ccc7c(c6)C(=O)N(C6CCC(=O)NC6=O)C7)CC5)CC4)(NC(=O)c4cc(F)ccc4F)CC3)nc2)c2c(C#N)cnn2c1 (stereo not drawn) [Example 16, N-[1-(5-{3-cyano-6-ethoxypyrazolo[1,5-a]pyridin-4-yl}pyridin-2-yl)-4-{[4-(7-{4-[2-(2,6-dioxopiperidin-3-yl)-3-oxo-2,3-dihydro-1H-isoindol-5-yl]piperazin-1-yl}heptanoyl)piperazin-1-yl]methyl}piperidin-4-yl]-2,5-difluorobenzamide]	> 90%	2 to 10 nM
CCOc1cc(-c2ccc(N3CCC(CN4CCN(C(=O)CCCCN5CCC(c6ccc7c(c6)C(=O)N(C6CCC(=O)NC6=O)C7)CC5)CC4)(NC(=O)c4cc(F)ccc4F)CC3)nc2)c2c(C#N)cnn2c1 (stereo not drawn) [Example 18, N-[1-(5-{3-cyano-6-ethoxypyrazolo[1,5-a]pyridin-4-yl}pyridin-2-yl)-4-{[4-(5-{4-[2-(2,6-dioxopiperidin-3-yl)-3-oxo-2,3-dihydro-1H-isoindol-5-yl]piperidin-1-yl}pentanoyl)piperazin-1-yl]methyl}piperidin-4-yl]-2,5-difluorobenzamide]	> 90%	< 2 nM
CCOc1cc(-c2ccc(N3CCC(CN4CCN(C(=O)CCCCCCN5CCC(c6ccc7c(c6)C(=O)N(C6CCC(=O)NC6=O)C7)CC5)CC4)(NC(=O)c4cc(F)ccc4F)CC3)nc2)c2c(C#N)cnn2c1 (stereo not drawn) [Example 19, N-[1-(5-{3-cyano-6-ethoxypyrazolo[1,5-a]pyridin-4-yl}pyridin-2-yl)-4-{[4-(7-{4-[2-(2,6-dioxopiperidin-3-yl)-3-oxo-2,3-dihydro-1H-isoindol-5-yl]piperidin-1-yl}heptanoyl)piperazin-1-yl]methyl}piperidin-4-yl]-2,5-difluorobenzamide]	> 90%	2 to 10 nM
CCOc1cc(-c2ccc(N3CCC(CN4CCN(C(=O)CCCCCCNc5ccc(C6CCC(=O)NC6=O)cc5)CC4)(NC(=O)c4cc(F)ccc4F)CC3)nc2)c2c(C#N)cnn2c1 (stereo not drawn) [Example 20, N-[1-(5-{3-cyano-6-ethoxypyrazolo[1,5-a]pyridin-4-yl}pyridin-2-yl)-4-{[4-(7-{[4-(2,6-dioxopiperidin-3-yl)phenyl]amino}heptanoyl)piperazin-1-yl]methyl}piperidin-4-yl]-2,5-difluorobenzamide]	> 90%	2 to 10 nM
CCOc1cc(-c2ccc(N3CCC(CN4CCN(C(=O)CCCCCCCCNc5ccc(C6CCC(=O)NC6=O)cc5)CC4)(NC(=O)c4cc(F)ccc4F)CC3)nc2)c2c(C#N)cnn2c1 (stereo not drawn) [Example 21, N-[1-(5-{3-cyano-6-ethoxypyrazolo[1,5-a]pyridin-4-yl}pyridin-2-yl)-4-{[4-(9-{[4-(2,6-dioxopiperidin-3-yl)phenyl]amino}nonanoyl)piperazin-1-yl]methyl}piperidin-4-yl]-2,5-difluorobenzamide]	60 to 90%	10 to 100 nM
CCOc1cc(-c2ccc(N3CCC(CN4CCN(C(=O)CCCCCCNc5cccc(NC6CCC(=O)NC6=O)c5)CC4)(NC(=O)c4cc(F)ccc4F)CC3)nc2)c2c(C#N)cnn2c1 (stereo not drawn) [Example 22, N-[1-(5-{3-cyano-6-ethoxypyrazolo[1,5-a]pyridin-4-yl}pyridin-2-yl)-4-({4-[7-({3-[(2,6-dioxopiperidin-3-yl)amino]phenyl}amino)heptanoyl]piperazin-1-yl}methyl)piperidin-4-yl]-2,5-difluorobenzamide]	60 to 90%	10 to 100 nM
CCOc1cc(-c2ccc(N3CCC(CN4CCN(C(=O)CCCCCCCCNc5cccc(NC6CCC(=O)NC6=O)c5)CC4)(NC(=O)c4cc(F)ccc4F)CC3)nc2)c2c(C#N)cnn2c1 (stereo not drawn) [Example 23, N-[1-(5-{3-cyano-6-ethoxypyrazolo[1,5-a]pyridin-4-yl}pyridin-2-yl)-4-({4-[9-({3-[(2,6-dioxopiperidin-3-yl)amino]phenyl}amino)nonanoyl]piperazin-1-yl}methyl)piperidin-4-yl]-2,5-difluorobenzamide]	> 90%	10 to 100 nM
